Data taken from US12281304B2, “Compositions and methods for treating and preventing muscular disorders and dystrophies, steroid side effects, and inflammation” (Children's National Medical Center, priority 2018, dated 2025).

Test system: miRNAs in diaphragm muscle of mdx mice
Test: TaqMan low-density array (TLDA) miRNA profiling of diaphragm, discovery set (prophylactic mdx trial)
Type: in vivo, mouse
Description: Archival muscle samples (diaphragm) from two separate preclinical studies were obtained, with each trial showing a significant benefit from both prednisolone and vamorolone drug treatments (23). Prednisolone was used because it is the active form of prednisone, the current DMD standard of care. The first, “discovery set” of diaphragm muscles was from a prophylactic trial design where 2-week old (postnatal day 15) mdx or wild type control mice received oral dosing for 6 weeks with vehicle (cherry syrup), prednisolone (5 mg/kg), or vamorolone (15 mg/kg) as previously reported (23). The second, “validation set” of diaphragm muscles was from an extended trial in older mice where mdx or wild type mice were subjected to treadmill running to unmask mild phenotypes. Mice in this validation set were treated with either vehicle, prednisolone (5 mg/kg) or vamorolone (45 mg/kg) for four months beginning at two months of age (23). At the endpoint of each trial, diaphragm muscles were harvested and frozen in liquid nitrogen-cooled isopentane.
We extracted total RNA from 5 diaphragm muscles per treatment group in the discovery set of samples from 8-week old mice. RNA was extracted using a modified TRIzol protocol with isopropanol precipitation at −20° C. overnight. This RNA was reverse transcribed to cDNA using a High Capacity cDNA Reverse Transcription Kit with RNase Inhibitor (ThermoFisher; Carlsbad, Calif.), with miRNA-specific Megaplex RT Primers, Rodent Pools Set version 3.0 (ThermoFisher; Carlsbad, Calif.). Levels of each of the miRNAs were profiled in the discovery set using TAQMAN Array Rodent MiRNA A+B Cards Set v3.0 (ThermoFisher; Carlsbad, Calif.).
In the discovery set experiments, levels of each miRNA were quantified in TaqMan low-density arrays using ThermoFisher Cloud software with the Relative Quantification Application (ThermoFisher; Carlsbad, Calif.) tool. Data was analyzed by ANOVA with post-hoc comparison of each group to the mdx vehicle-treated group. […] A P-value of P≤0.05 was set as the significance threshold, without adjustment for multiple comparisons. To reduce false-positive discovery in this setting, an evidence-based approach was used to identify efficacy associated miRNAs where 1) results from the multiple groups were cross-referenced, and 2) all candidate miRNAs identified in this discovery set were then assayed in a separate validation set of mice. For the validation set experiments, levels of each individual miRNA were assayed in samples from a second, independent preclinical trial in adult mdx mice. Data from individual TaqMan Assays was quantified using QuantStudio Real-Time PCR version 1.3 software (Applied Biosystems; Foster City, Calif.). The levels of all miRNAs were normalized to the geometric mean of multiple control genes (60, 70). Comparison of groups was made by ANOVA with Holm-Sidak post-hoc test comparing each group to mdx vehicle.
To visualize behavior of miRNAs within individual mice for each group, heat map images were generated. Heat maps were generated using Rq values of TLDA array data exported from the Relative Quantification Application of the ThermoFisher Cloud software (ThermoFisher; Carlsbad, Calif.) tool. Heat maps of miRNA expression were produced using Hierarchical Clustering Explorer Version 3.5 (at www.cs.umd.edu/hcil/multi-cluster/) produced by the Human Computer Interaction Laboratory (University of Maryland; College Park, Md.).
To examine miRNA expression TaqMan low density qPCR array cards were used to profile approximately 750 miRNAs within diaphragm muscle from a discovery set of mice. Samples for this experiment came from a trial that utilized a prophylactic approach (23). Briefly, mdx mice undergo a stage of peak severity characterized by widespread inflammation and necrosis from approximately 3-8 weeks of age, followed by a recovery stage where mice show milder phenotypes (25). […]

[1] = discovery set diaphragm muscle, mdx mice, Pred 5 mg/kg, Vam 15 mg/kg
[2] = mdx diaphragm, vs untreated mdx, Pred 5 mg/kg, Vam 15 mg/kg

## C[C@]12C=CC(=O)C=C1CC[C@@H]1[C@@H]2[C@@H](O)C[C@@]2(C)[C@H]1CC[C@]2(O)C(=O)CO [prednisolone]
[1]
  miRNA 142-3p % expression in comparison to mdx vehicle: 50 ± 13 %
  miRNA 142-5p % expression in comparison to mdx vehicle: 44 ± 11 %
  miRNA 146a % expression in comparison to mdx vehicle: 39 ± 6 %
  miRNA 301a % expression in comparison to mdx vehicle: 70 ± 18 %
  miRNA 324-3p % expression in comparison to mdx vehicle: 71 ± 14 %
  miRNA 455-3p % expression in comparison to mdx vehicle: 62 ± 18 %
  miRNA 455-5p % expression in comparison to mdx vehicle: 64 ± 30 %
  miRNA 497 % expression in comparison to mdx vehicle: 49 ± 11 %
  miRNA 652 % expression in comparison to mdx vehicle: 62 ± 14 %
Mdx diaphragm, 8-week-old mice, oral dosing 6 weeks, prednisolone 5 mg/kg, vamorolone 15 mg/kg, versus untreated mdx, P≤0.05
  number of miRNAs significantly changed in dystrophic muscle: 76
Mdx diaphragm, discovery set, prednisolone 5 mg/kg
  expression of 14q32 (mouse 12F1) cluster miRNAs miR-134, miR-370, miR-409, miR-433, miR-493, miR-543: specifically activated
Mdx diaphragm, discovery set, prednisolone 5 mg/kg, vamorolone 15 mg/kg, P≤0.05
  number of miRNAs significantly increased by treatment: 9
Mdx diaphragm, discovery set, versus mdx vehicle
  expression of the nine efficacy-associated miRNAs elevated in dystrophy: returned towards healthy wild type levels
[2]
  Rq hsa-let-7i#-002172: 0.714
  Rq hsa-miR-30e-3p-000422: 0.739
  Rq hsa-miR-22#-002301: 0.641
  Rq hsa-miR-140-3p-002234: 0.681
  Rq hsa-miR-143-000466: 1.096
  Rq hsa-miR-154#-000478: 1.585
  Rq hsa-miR-190b-002263: 0.547
  Rq hsa-miR-200c-000505: 0.486
  Rq hsa-miR-206-000510: 1.017
  Rq hsa-miR-213-000516: 0.622
  Rq hsa-miR-214#-002293: 0.82
  Rq hsa-miR-214-000517: 0.767
  Rq hsa-miR-376a#-001287: 0.978
  Rq hsa-miR-455-001280: 0.6
  Rq hsa-miR-744#-002325: 0.537
  Rq mmu-let-7e-002406: 0.66
  Rq mmu-let-7a-000377: 0.491
  Rq mmu-let-7b-000378: 0.655
  Rq mmu-let-7c-1#-002479: 1.427
  Rq mmu-let-7c-000379: 0.651
  Rq mmu-let-7i-002221: 0.775
  Rq mmu-let-7d#-001178: 0.556
  Rq mmu-let-7d-002283: 0.714
  Rq mmu-miR-1-002222: 0.868
  Rq mmu-miR-15a-000389: 0.635
  Rq mmu-miR-16-000391: 0.663
  Rq mmu-miR-18a-002422: 1.284
  Rq mmu-miR-19a-000395: 0.846
  Rq mmu-miR-20a#-002491: 0.771
  Rq mmu-miR-21#-002493: 0.707
  Rq mmu-miR-21-000397: 0.659
  Rq mmu-miR-23b-000400: 0.621
  Rq mmu-miR-25-000403: 0.75
  Rq mmu-miR-26a-000405: 0.7
  Rq mmu-miR-27b-000409: 0.796
  Rq mmu-miR-28-000411: 0.759
  Rq mmu-miR-30e-002223: 0.785
  Rq mmu-miR-30a-000417: 0.756
  Rq mmu-miR-30b-000602: 0.785
  Rq mmu-miR-30c-000419: 0.739
  Rq mmu-miR-31#-002495: 0.955
  Rq mmu-miR-31-000185: 1.028
  Rq mmu-miR-34a-000426: 0.712
  Rq mmu-miR-34b-3p-002618: 0.607
  Rq mmu-miR-34c#-002584: 0.623
  Rq mmu-miR-34c-000428: 0.655
  Rq mmu-miR-99b-000436: 0.783
  Rq mmu-miR-100-000437: 0.586
  Rq mmu-miR-103-000439: 0.679
  Rq mmu-miR-122-002245: 0.241
  Rq mmu-miR-125a-3p-002199: 0.666
  Rq mmu-miR-125b#-002508: 0.453
  Rq mmu-miR-125b-3p-002378: 0.561
  Rq mmu-miR-125b-5p-000449: 0.676
  Rq mmu-miR-126-3p-002228: 0.697
  Rq mmu-miR-126-5p-000451: 0.682
  Rq mmu-miR-127-000452: 1.382
  Rq mmu-miR-128a-002216: 0.871
  Rq mmu-miR-130a-000454: 0.758
  Rq mmu-miR-130b#-002460: 0.443
  Rq mmu-miR-130b-000456: 0.757
  Rq mmu-miR-133a-002246: 0.942
  Rq mmu-miR-134-001186: 1.922
  Rq mmu-miR-136-002511: 0.705
  Rq mmu-miR-138#-002554: 0.214
  Rq mmu-miR-140-001187: 0.775
  Rq mmu-miR-142-3p-000464: 0.485
  Rq mmu-miR-142-5p-002248: 0.438
  Rq mmu-miR-143-002249: 0.742
  Rq mmu-miR-145-002278: 0.694
  Rq mmu-miR-146a-000468: 0.397
  Rq mmu-miR-146b#-002453: 0.088
  Rq mmu-miR-146b-001097: 0.555
  Rq mmu-miR-148a-000470: 0.602
  Rq mmu-miR-148b-000471: 0.512
  Rq mmu-miR-150#-002570: 0.297
  Rq mmu-miR-150-000473: 0.516
  Rq mmu-miR-151-3p-001190: 0.877
  Rq mmu-miR-152-000475: 0.721
  Rq mmu-miR-154-000477: 0.606
  Rq mmu-miR-155-002571: 0.742
  Rq mmu-miR-181a-000480: 0.728
  Rq mmu-miR-181c-000482: 0.624
  Rq mmu-miR-185-002271: 0.818
  Rq mmu-miR-186-002285: 0.866
  Rq mmu-miR-191-002299: 0.771
  Rq mmu-miR-193#-002577: 0.799
  Rq mmu-miR-195-000494: 0.491
  Rq mmu-miR-199a-3p-002304: 0.844
  Rq mmu-miR-199b-001131: 0.771
  Rq mmu-miR-200c-002300: 0.508
  Rq mmu-miR-203-000507: 0.575
  Rq mmu-miR-204-000508: 0.722
  Rq mmu-miR-210-000512: 0.759
